Measurements from US20250235467A1, “DENDRITIC CELL VACCINATION IN PARALLEL TO CHEMOTHERAPY” (priority 2018, published 2025).
Where two headings read alike, the source gives them in different places. Marks after values point to notes of the source that are not given here.

Key:
[1] = test system: platinum-sensitive recurrent ovarian cancer; conditions: cited from earlier work; for PFS HR: p <0.0001
[2] = test system: relapsed platinum-sensitive epithelial ovarian cancer; assay: Randomized, open-label phase II clinical trial, DC vaccine added to carboplatin and gemcitabine vs chemotherapy alone; type: in vivo, human; conditions: ITT population, N = 32 per group
From the text: An interim analysis was first performed, followed later by the final analysis.
A total of 6, 8, or 10 cycles of standard of care chemotherapy were to be completed by patients in both treatment groups as per investigators' decision (FIG. 4).

[3] = test system: metastatic stage IV non-small cell lung cancer (NSCLC); assay: Open label, multicenter phase II clinical trial, DCVAC/LuCa + carboplatin and paclitaxel vs carboplatin and paclitaxel alone; type: in vivo, human; conditions: PP population; interim analysis of PFS
Method: The purpose of the study is to compare efficacy of DCVAC/LuCa+chemotherapy (carboplatin and paclitaxel) vs. carboplatin and paclitaxel alone in patients with stage IV NSCLC, as measured by OS and progression free survival (PFS). PFS was measured based on radiological assessments according to the RECIST (Response Evaluation Criteria in Solid Tumors) guidelines (version 1.1) (Eisenhauer et al. 2009).
The planned number of chemotherapy cycles was 4-6 in all treatment groups (FIG. 7).

[4] = test system: newly diagnosed epithelial ovarian carcinoma
Method: The study was conducted as an open label, multicenter phase II clinical trial in women with newly diagnosed epithelial ovarian carcinoma who have undergone debulking surgery.
The planned number of chemotherapy cycles was 6 in all treatment groups (FIG. 1).
Results were calculated either by using as beginning of the trial period the time of first treatment or the time of randomization. Two pre-planned per protocol interim analyses of PFS and OS were performed first at 6 months and second at 12 months after the last dose of standard of care chemotherapy of the last enrolled patient. […]

[5] = group A: after the start of DC vaccine treatment, group B: shorter reporting time period

Bevacizumab
OS HR ([1]; bevacizumab 15 mg/kg IV q3w + carboplatin AUC4 + gemcitabine, p 0.6479): 0.952^c | OS HR ([1]; bevacizumab 15 mg/kg IV q3w + carboplatin AUC4 + gemcitabine, p 0.6479, listed as bevacizumab): 0.952 | PFS HR ([1]; bevacizumab 15 mg/kg IV q3w + carboplatin AUC4 + gemcitabine): 0.48^c | OS HR ([1]; bevacizumab 15 mg/kg IV q3w + carboplatin AUC5 + paclitaxel, p 0.0447): 0.823^c | OS HR ([1]; bevacizumab 15 mg/kg IV q3w + carboplatin AUC5 + paclitaxel, p 0.0447, listed as bevacizumab): 0.823 | PFS HR ([1]; bevacizumab 15 mg/kg IV q3w + carboplatin AUC5 + paclitaxel): 0.613^c

carboplatin and gemcitabine
No. of 2nd-line chemotherapy non-responders: n (%) [2]: 0 (0.00%) n (%)

carboplatin and paclitaxel
Progression of the lung cancer disease [3]: progressed for all patients | No. of 1st-line chemotherapy non-responders: n (%) ([4]; ITT population, N = 31 per group): 0 (0.00%) n (%) | Number of SAEs reported [4, 5]: 14 | Number of patients in whom SAEs were reported [4, 5]: 9
